Measurements: patent US5278045A, “Method and compositions to screen compounds for enhancement of the cholinergic, dopaminergic and serotonergic function” (Du Pont Merck Pharmaceutical Company, priority 1990, dated 1994)

Columns and labels:
[1] = target: DuP 996 binding protein; assay: Radioreceptor screening assay (displacement of tritiated DuP 996); parameters: species or system rat; details: inhibition of binding of 10 nM tritiated DuP 996, pH 7.4, 25° C., 60 minutes
Procedure: Male Sprague-Dawley rats (Charles River Breeding Laboratories) at 200-250 g were euthanatized by decapitation. Rat brain regions were dissected according to Heffner et al., Pharmacol. Biochem. Behav., 13, 453 (1980). Brain membranes were prepared by the method of Tam, Proc. Natl. Acad. Sci. USA, 80, 6703 (1983). The brain tissues were homogenized (20 sec) in 10 vol (wt/vol) of ice-cold 0.32M sucrose with a Brinkman Polytron (setting 8). The homogenate was centrifuged at 920×g for 10 min at 4° C. The supernatant was centrifuged at 47,000×g for 20 min. The resulting membrane pellet was resuspended in 10 vol (original wt/vol) of 50 mM Tris-HCl (pH 7.4) and incubated at 37° C. for 30 min to degrade and dissociate bound endogenous ligands. The membranes were then centrifuged at 47,000×g for 20 min and resuspended in 50 mM Tris-HCl.
Compounds to be screened were incubated with brain membranes. (1-2 mg protein) in 50 mM Tris-HCl buffer, pH 7.4, for 10 minutes in 25° C. Then 10 nM tritiated DuP 996 or its active structural analogs were added and incubated at 25° C. for 60 minutes. The samples were filtered on Whatman GF/B glass filters which had been soaked in 0.2% polyethylenimine and washed 3 times each with 5 ml of ice-cold Tris buffer. Nonspecific binding was determined by performing binding in the presence of 10 μM DuP 996. The control represents specific binding in the absence of compounds to be screened. Screened compounds which inhibited the specific binding of tritiated DuP 996 or analogs to its binding protein should be active in binding to the same protein. This is illustrated further in Example 4, Part B.

[2] = system: ACh release; assay: Neurotransmitter release assay: stimulated ACh release from brain slices; parameters: species or system rat; details: concentration to enhance stimulated release of ACh by 100% (2-fold) over control, from dose response curves
Procedure: Male Wistar rats weighing 175-200 g were euthanatized and the brains were dissected out immediately. Slices (0.3 mm thick) from the parietal cortex were prepared manually by using a recessed Lucite® guide. Slices (1.5 mm thick) from the hippocampus and the caudate nucleus were prepared by using a slotted brain holder. All slices were subsequently cut into 0.25×0.25 mm squares with a McIlwain tissue chopper.
Labeling of transmitter stores in slices was prepared by the following methods. For ACh release, slices (approximately 100 mg wet weight) were incubated in 10 ml Krebs-Ringer (KR) medium containing (mM): NaCl(116), KCl(3), CaCl2 (1.3), MgCl2 (1.2), KH2 PO4 (1.2), Na2 SO4 (1.2), NaHCO3 (25) and glucose(11), to which 10 μCi ^3 H-choline (specific activity approx. 80 Ci/mmol: NEN) and 10 nmol unlabeled choline had been added to give a final concentration of 10^-6 M. Incubation was carried out for 30 min at 37° C. under a steady flow of 95% O2 /5% CO2. Under these conditions, part of the radioactive choline taken up is converted into radioactive ACh by cholinergic nerve endings, stored in synaptic vesicles, and released upon depolarization by high-K^+ -containing medium [Molenaar et al., 1973a]. For dopamine (DA), serotonin (5-HT), and norepinephrine (NE) release, slices (approximately 100 mg wet weight) were incubated in KR medium containing 0.01 mM nialamide at 37° C. under a steady flow of 95% O2 /5% CO2. The MAO-inhibitor nialamide was added to the medium in order to inhibit metabolism to the monoamines. Incubation was for 30 min in 10 ml of KR medium to which 10 μCi ^3 H-dopamine, ^3 H-norepinephrine, or ^3 H-5-hydroxytryptamine (specific activity 30, 45, and 78 Ci/mmol, respectively: all from NEN) had been added.
Separate experiments were performed for the release of each neurotransmitter. After labeling of the transmitter stores, the slices were washed three times with non-radioactive KR medium and transferred to a superfusion apparatus to measure the drug effects on transmitter release [Schoemaker et al., Psychopharmacology 74, 137 (1981)]. The superfusion apparatus consisted of 10 thermo-jacketed glass columns of 5 mm diameter which were provided with GF/F glass fiber filters to support the brain slices (approximately 10 mg tissue/column). Superfusion was carried out with KR medium at a rate of 0.3 ml/min. For ACh release, 10^-5 M hemicholinium-3 was added to the medium to prevent the uptake of choline formed during superfusion from phospholipids and released ACh, so that it could not be subsequently converted into newly synthesized ACh, which would be released in preference to the pre-formed, labeled ACh. The medium was delivered by a 25-channel peristaltic pump (Ismatec; Brinkman) and maintained at 37° C. by a thermostated stainless-steel heating coil before entering the superfusion column. Each column was provided with a four-way slider valve (Beckman Instruments) which allowed rapid change of low-to-high-K^+ -KR-medium and with two 10-channel, 3-way valves which were used to change form drug-free to drug-containing low- and high-K^+ -KR media.
After 15 min washout of non-specifically bound radioactivity during superfusion, the collection of fractions of 4 min (1.2 ml) each was started. After 3×4 min, the KR medium was changed to a KR medium with 25 mM KCl (ACh, 5-HT release) or 12.5 mM KCl (DA release) (high K^+ -KR medium; S1). Depolarization-induced stimulation of release by high-K^+ -KR medium was then substituted by drug- or vehicle-containing low- and high-K^+ -KR medium and superfusion continued for 3×4 min with low-K^+ -KR medium, for 1×4 min with high-K^+ -KR medium (S2), and for 2×4 min with low-K^+ -KR medium.
Compounds were added to the medium by 100-fold dilution of appropriate stock solutions (in 0.9% NaCl/H2 O) with either low- or high-K^+ -KR medium.
All superfusion fractions were collected in liquid scintillation counting vials.

IC50 [1] | SMILES | ACh Release EC100 [2]
0.67 µM | O=C1N(c2ccccc2)c2ccccc2C1(Cc1ccncc1)Cc1cn[nH]c1 (stereo not drawn) [Compound 17, 1,3-Dihydro-1-phenyl-3-(1H-pyrazol-4-ylmethyl)-3-(4-pyridinyl-methyl)-2H-indol-2-one] | 3,000 nM
990 µM | O=C1N(c2ccccc2)c2ccccc2C1(Cc1cnn(Cc2ccccc2)c1)Cc1cnn(Cc2ccccc2)c1 [Compound 27, 3,3-Bis[1-(phenylmethyl)-1H-pyrazol-4-ylmethyl]-1,3 dihydro-1-phenyl-2H-indol-2-one] | 1,300,000 nM
0.179 µM | O=C1N(c2ccccc2)c2ccccc2C1(Cc1ccncc1)Cc1ccncn1 (stereo not drawn) [Compound 13, 1,3-Dihydro-1-phenyl-3-(4-pyridinylmethyl)-3(4-pyrimidinylmethyl)-2H-indol-2-one] | 1,500 nM
0.034 µM | O=C1c2ccccc2C(Cc2ccncc2)(Cc2ccncc2)c2ccccc21 [Compound 4, 10,10-Bis(4-pyridinylmethyl)-9(10H)-anthracenone] | 90 nM
0.57 µM | O=C1N(c2ccccc2)c2ccccc2C1(Cc1ccncn1)Cc1ccncn1 [Compound 16, 3,3-Bis(4-pyrimidinylmethyl)-1-phenyl-1H-indol-2(3H)-one] | 3,500 nM
75.9 µM | O=C1N(c2ccccc2)c2ccccc2C1(c1cncnc1)c1cncnc1 [Compound 24, 3,3-Bis(5-pyrimidinyl)-1,3-dihydro-1-phenyl-2H-indol-2-one] | 980,000 nM
0.051 µM | c1ccc2c(c1)Sc1ccccc1C2(Cc1ccncc1)Cc1ccncc1 [Compound 6, 4,4'-[9H-Thioxanthen-9,9-diylbis(methylene)]pryidine] | 1,500 nM
1000 µM | O=C1N(c2ccccc2)c2ccccc2C1(Cc1ccnnc1)Cc1ccnnc1 [Compound 28, 3,3-Bis(4-pyridazinyl-methyl)-1,3-dihydro-1-phenyl-2H-indol-2-one] | 1,000,000 nM
0.02 µM | CC(=O)c1ccc2c(c1)C(Cc1ccncc1)(Cc1ccncc1)c1ccccc1-2 [Compound 1, 1-[9,9-Bis(4-pyridinylmethyl)-9H-fluoren-2-yl]-ethanone] | 170 nM
1200 µM | Cc1nc(CC2(Cc3csc(C)n3)C(=O)N(c3ccccc3)c3ccccc32)cs1 [Compound 30, 3,3-Bis(2-methyl-4-thiazolylmethyl)-1,3-dihydro-1-phenyl-2H-indol-2-one] | 980,000 nM
0.168 µM | c1cnc2c(c1)C(Cc1ccncc1)(Cc1ccncc1)c1cccnc1-2 [Compound 12, 5,5-Bis(4-pyridinyl-methyl)-5H-cyclopenta(2,1-B:3,4-B')-dipyridine] | 1,400 nM
0.046 µM | O=C1N2c3ccccc3CCc3cccc(c32)C1(Cc1ccncc1)Cc1ccncc1 [Compound 5, 2,2-Bis(4-pyridinylmethyl)-6,7-dihydro-indole(1,7-AB)(1)-benzapin-1(2H)-one] | 2,500 nM
15.9 µM | CN1C(=O)C(Cc2ccncc2)(Cc2ccncc2)c2ccccc21 [Compound 22, 1,3-Dihydro-1-methyl-3-3-bis(4-pyridinylmethyl)-2-H-indol-2-one] | 17,000 nM
1.17 µM | O=C1N(Cc2ccccc2)c2ccccc2C1(Cc1ccncc1)Cc1ccncc1 [Compound 19, 3,3-Bis(4-pyridinyl-methyl)-1,3-dihydro-1-(phenylmethyl)-2H-indol-2-one] | 4,500 nM
1100 µM | c1ccc(CC2(Cc3ccccn3)c3ccccc3-c3ccccc32)nc1 [Compound 29, 2-[9-(2-pyridinylmethyl)-9H-fluoren-9-ylmethyl]-pyridine] | 990,000 nM
1.04 µM | O=C1N(c2ccccc2)c2ccccc2C1(Cc1ccncc1)CC1CCCO1 (stereo not drawn) [Compound 18, 1,3-Dihydro-1-phenyl-3-(4-pyridinylmethyl)-3-(tetrahydro-2-furanyl-methyl)-2H-indol-2-one] | 34,000 nM
980 µM | O=C1C(C(O)(c2ccccn2)c2ccccn2)c2ccccc2N1c1ccccc1 (stereo not drawn) [Compound 26, 3[Bis(2-pyridinyl)-(hydroxy)methyl]-1,3-dihydro-1-phenyl-2H-indol-2-one] | 1,000,000 nM
0.198 µM | Cc1ccc2c(c1)N(c1ccccc1)C(=O)C2(Cc1ccncc1)Cc1ccncc1 [Compound 14, 3,3-Bis(4-pyridinylmethyl)-1,3-dihydro-6-methyl-1-phenyl-2H-indol-2-one] | 4,800 nM
970 µM | CN1CCC(CC2(CC3CCN(C)CC3)C(=O)N(c3ccccc3)c3ccccc32)CC1 [Compound 25, 3,3-Bis(1-methyl-4-piperidinylmethyl)-1,3-dihydro-1-phenyl-2H-indol-2-one] | 1,200,000 nM
0.032 µM | O=C1c2c(Cl)cccc2C(Cc2ccncc2)(Cc2ccncc2)c2cccc(Cl)c21 [Compound 3, 10,10-Bis-(4-pyridinylmethyl)-1,8-dichloro-9(10H)-anthracenone] | 170 nM
6.03 µM | O=C1C(Cc2cccnc2)c2ccccc2N1c1ccccc1 (stereo not drawn) [Compound 21, 1,3-Dihydro-1-phenyl-3-(3-pyridinylmethyl)-2H-indol-2-one] | 12,000 nM
4.2 µM | O=C1N(c2ccccc2)c2ccccc2C1(Cc1cnccn1)Cc1cnccn1 [Compound 20, 3,3-Bis(2-pyrazinylmethyl)-1-phenyl-1H-indol-2(3H)-one] | 11,000 nM
0.062 µM | Cc1ccc2c(c1)C(Cc1ccncc1)(Cc1ccncc1)c1ccccc1-2 [Compound 8, 4-[2-Methyl-9-(4-pyridinyl-methyl)-9H-fluoren-9-ylmethyl]pyridine] | 170 nM
0.12 µM | C=C1c2cccc3cccc(c23)C1(Cc1ccncc1)Cc1ccncc1 [Compound 11, 4-[1,2-Dihydro-2-methyl-ene-1-(4-pyridinylmethyl)-1-acenaphthylen-1-yl-methyl]-pyridine] | 3,300 nM
